From patent publication US12252481B2, “Anti-viral compounds” (Aligos Therapeutics, Inc., priority 2021, dated 2025)
Read-outs that look alike come from different tables or passages of the source.

Experiments:
HRV3C = target: T1, HRV3C (Human rhinovirus 14, UniProt P03303); assay: biochemical; design: species or system HRV; details: read-out: HRV IC50 (bound)
T1 construct: 3CLpro and HRV3C was added using a Multidrop Combi

human cathepsin L = target: T2, human cathepsin L (Homo sapiens, UniProt P07711); assay: Cathepsin L assay (Z-FR-AMC fluorescence); format: biochemical; details: 10 pM human cathepsin L, 30 mins preincubation, Z-FR-AMC 2 μM
T2 construct: purchased R&D Systems
T2 sequence (P07711 114-333): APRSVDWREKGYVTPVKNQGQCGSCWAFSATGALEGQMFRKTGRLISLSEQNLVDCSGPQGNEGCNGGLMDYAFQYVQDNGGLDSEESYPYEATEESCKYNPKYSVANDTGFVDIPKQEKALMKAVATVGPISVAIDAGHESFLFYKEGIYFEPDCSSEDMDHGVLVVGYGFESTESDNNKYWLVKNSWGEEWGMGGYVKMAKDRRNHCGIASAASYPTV
Method in brief: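 IC50 values were taken from four-parameter fits of fluorescence read at 355/460 nm every 2 minutes for 30 minutes. The reaction started when 2 μM Z-FR-AMC was added. Before that, 10 pM human cathepsin L had been preincubated with inhibitor for 30 minutes.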

[1] = tested on: B.1.1.7 lineage SARS-CoV-2; assay: microbe, parasite or virus in culture; format: cell-based; details: read-out: A549-dual_ACE2_TMPRSS2 (EC50)
Vero E6-eGFP cells = details: read-out: VeroE6 + CP (CC50), absence of virus, numeric values
[2] = tested on: A549-dual_ACE2_TMPRSS2 cells
SARS-Cov-2 3CLpro = target: T3, SARS-Cov-2 3CLpro (Severe acute respiratory syndrome coronavirus 2, UniProt P0DTD1); assay: biochemical; details: read-out: SARS-Cov-2 IC50 (class)
T3 construct: 3CLpro and HRV3C was added using a Multidrop Combi

HeLa cells [3] = tested on: HeLa cells
[4] = tested on: human beta-coronavirus OC43; assay: OC43 coronavirus antiviral assay in HeLa cells (cytopathic effect, cell-titer-glo); format: cell-based; details: 6 days at 33° C., read-out: EC50 (class)
[5] = tested on: SARS-CoV-2-GHB-03021/2020; format: cell-based; details: read-out: VeroE6 + CP (EC50)
HeLa cells [6] = assay: Cytotoxicity in HeLa cells without OC43 virus (cell-titer-glo); details: HeLa cells without OC43 virus
[7] = HRV3C, 30 mins preincubation, SAMDI-MS
[8] = read-out: A549-dual_ACE2_TMPRSS2 (CC50), assay medium without virus, MTS, numeric values
[9] = 3CLpro, 30 mins preincubation, SAMDI-MS

T1 sequence (P03303 1538-1719): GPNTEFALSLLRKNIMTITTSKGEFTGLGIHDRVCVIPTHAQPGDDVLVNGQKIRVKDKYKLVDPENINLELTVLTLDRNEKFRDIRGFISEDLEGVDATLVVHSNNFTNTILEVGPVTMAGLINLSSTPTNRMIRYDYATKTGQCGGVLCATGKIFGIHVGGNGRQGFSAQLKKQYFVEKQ

Compound	IC50 (HRV3C; [7]) [µM]	IC50 (human cathepsin L) [µM]	EC50 [1] [µM]	CC50 (Vero E6-eGFP cells) [µM]	CC50 [2, 8] [µM]	IC50 (SARS-Cov-2 3CLpro; [9]) [µM]	CC50 (HeLa cells [3]) [µM]	EC50 [4] [µM]	EC50 [5] [µM]	IC50 (SARS-Cov-2 3CLpro) [µM]	CC50 (HeLa cells [6]) [µM]	IC50 (HRV3C) [µM]	CC50 [2] [µM]
N#C[C@H](C[C@@H]1CCNC1=O)NC(=O)[C@@H]1[C@@H]2[C@H](CN1C(=O)[C@@H]1C[C@]13CCCc1ccccc13)[C@@H]1C=C[C@H]2C1 (single isomer, unassigned) [Example 8]	> 10	≥ 10	< 0.1	> 50	> 10	0.02 to 0.2	> 100	0.1 to 1					
CC1(C(=O)N[C@H](C(=O)N2C[C@H]3[C@@H]([C@H]2C(=O)N[C@H](C#N)C[C@@H]2CCNC2=O)[C@H]2C=C[C@@H]3C2)C(C)(C)C)CC1 [Compound 47, (1R,2S,3S,6R,7S)—N-[(1S)-1-cyano-2-[(3S)-2-oxopyrrolidin-3-yl]ethyl]-4-[(2S)-3,3-dimethyl-2-[(1-methylcyclopropyl)formamido]butanoyl]-4-azatricyclo[5.2.1.0^{2,6}]dec-8-ene-3-carboxamide]	> 10	≥ 10		> 50	> 10	0.02 to 0.2	> 100	0.1 to 1					
C#CC(C)(C)[C@H](NC(=O)C1(F)CC1)C(=O)N1C[C@H]2[C@@H]([C@H]1C(=O)N[C@H](C#N)C[C@@H]1CCNC1=O)[C@H]1C=C[C@@H]2C1 [Compound 63, (1R,2S,3S,6R,7S)—N-[(1S)-1-cyano-2-[(3S)-2-oxopyrrolidin-3-yl]ethyl]-4-[(2S)-2-[(1-fluorocyclopropyl)formamido]-3,3-dimethylpent-4-ynoyl]-4-azatricyclo[5.2.1.0^{2,6}]dec-8-ene-3-carboxamide]	> 10	≥ 10	< 0.1		> 10	< 0.02	> 100	< 0.1					
C[C@@H](OC(C)(C)C)[C@H](NC(=O)C(F)(F)F)C(=O)N1C[C@H]2[C@@H]([C@H]1C(=O)N[C@H](C#N)C[C@@H]1CCNC1=O)[C@H]1C=C[C@@H]2C1 [Example 3, (1R,2S,3S,6R,7S)-4-[(2S,3R)-3-(tert-butoxy)-2-(2,2,2-trifluoroacetamido)butanoyl]-N-[(1S)-1-cyano-2-[(3S)-2-oxopyrrolidin-3-yl]ethyl]-4-azatricyclo[5.2.1.0^{2,6}]dec-8-ene-3-carboxamide]	> 10	≥ 10	< 0.1	> 50	> 10			< 0.1	< 0.1	< 0.02	> 100		
CC(C)(C)[C@H](NC(=O)c1cnccn1)C(=O)N1C[C@H]2[C@@H]([C@H]1C(=O)N[C@H](C#N)C[C@@H]1CCNC1=O)[C@H]1C=C[C@@H]2C1 [Example 6, (1R,2S,3S,6R,7S)—N-[(1S)-1-cyano-2-[(3S)-2-oxopyrrolidin-3-yl]ethyl]-4-[(2S)-3,3-dimethyl-2-(pyrazin-2-ylformamido)butanoyl]-4-azatricyclo[5.2.1.0^{2,6}]dec-8-ene-3-carboxamide]		≥ 10	1 to 10				> 100	< 0.1	1 to 10	0.02 to 0.2		> 10	> 10
C#CC(C)(C)[C@H](NC(=O)C(F)(F)F)C(=O)N1C[C@H]2[C@@H]([C@H]1C(=O)N[C@H](C#N)C[C@@H]1CCNC1=O)[C@H]1C=C[C@@H]2C1 [Example 7, (1R,2S,3S,6R,7S)—N-[(1S)-1-cyano-2-[(3S)-2-oxopyrrolidin-3-yl]ethyl]-4-[(2S)-3,3-dimethyl-2-(2,2,2-trifluoroacetamido)pent-4-ynoyl]-4-azatricyclo[5.2.1.0^{2,6}]dec-8-ene-3-carboxamide]	> 10	≥ 10	< 0.1	> 50	> 10			< 0.1	< 0.1	< 0.02	> 100		
